Test results taken from BindingDB's records for doi:10.1124/jpet.102.046128 (Bristol-Myers Squibb Pharmaceuticals Research Institute, 2003).
Where “and” joins values, the source holds several entries; their conditions need not be identical. Equal entries are not always repeated.

target: T1, Corticotropin-releasing factor receptor 1 (Homo sapiens, UniProt P34998)
T1 sequence (P34998 whole entry): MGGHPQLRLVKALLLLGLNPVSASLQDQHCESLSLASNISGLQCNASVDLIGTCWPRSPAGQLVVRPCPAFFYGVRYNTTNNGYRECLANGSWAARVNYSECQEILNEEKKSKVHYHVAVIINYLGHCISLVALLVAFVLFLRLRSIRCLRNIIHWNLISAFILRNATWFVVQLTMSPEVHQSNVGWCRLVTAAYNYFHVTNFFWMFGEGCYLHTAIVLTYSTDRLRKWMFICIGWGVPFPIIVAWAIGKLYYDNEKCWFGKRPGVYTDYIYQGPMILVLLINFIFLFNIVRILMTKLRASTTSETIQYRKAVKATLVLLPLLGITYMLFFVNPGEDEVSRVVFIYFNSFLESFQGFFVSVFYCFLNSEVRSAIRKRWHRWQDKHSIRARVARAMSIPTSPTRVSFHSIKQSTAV

Row | Compound | Ki
1 | CCC(COC)n1nnc2c(Nc3ccc(OC)cc3C)nc(C)cc21 (stereo unspecified) | 6.8 nM and 4.9 nM
2 | COCC(COC)Nc1nc(C)nc2c(-c3ccc(Cl)cc3Cl)c(C)nn12 [DMP696] | 2.8 nM
3 | H-DLTFHLLREMLEMAKAEQEAEQAALNRLLLEEA-NH2 [NSC_0] | > 1000 nM

Now from value to compound:

Row | Ki | Compound
4 | 1.2 nM and 0.4 nM | CCCCN(CC)c1nc(C)nc2c1c(C)cn2-c1c(C)cc(C)cc1C
5 | 0.4 nM | CCC(CC)Nc1cc(C)nc2c(-c3ccc(OC)cc3C)c(C)nn12
6 | 3.3 nM and 23.1 nM | CC[C@H](C)[C@H](NC(=O)[C@H](CC(=O)O)NC(=O)[C@H](CC(C)C)NC(=O)[C@H](CC(C)C)NC(=O)[C@H](CCCCN)NC(=O)[C@H](CCCN=C(N)N)NC(=O)[C@H](CC(N)=O)NC(=O)[C@H](CO)NC(=O)[C@H](Cc1cnc[nH]1)NC(=O)[C@H](C)NC(=O)[C@H](CCC(N)=O)NC(=O)[C@H](CCC(N)=O)NC(=O)[C@H](C)NC(=O)[C@H](CC(C)C)NC(=O)[C@H](CCC(N)=O)NC(=O)[C@H](CC(=O)O)NC(=O)[C@H](C)NC(=O)[C@H](CCCCN)NC(=O)[C@@H](NC(=O)[C@H](CCSC)NC(=O)[C@H](CCC(=O)O)NC(=O)[C@H](CC(C)C)NC(=O)[C@@H](NC(=O)[C@H](CCC(=O)O)NC(=O)[C@H](CCCN=C(N)N)NC(=O)[C@H](CC(C)C)NC(=O)[C@H](CC(C)C)NC(=O)[C@H](Cc1cnc[nH]1)NC(=O)[C@H](Cc1ccccc1)NC(=O)[C@@H](NC(=O)[C@H](CC(C)C)NC(=O)[C@H](CC(=O)O)NC(=O)[C@H](CC(C)C)NC(=O)[C@H](CO)NC(=O)[C@@H](NC(=O)[C@@H]1CCCN1C(=O)[C@@H]1CCCN1C(=O)[C@H](CCC(=O)O)NC(=O)[C@H](CCC(N)=O)NC(=O)[C@@H](N)CO)[C@@H](C)CC)[C@@H](C)O)C(C)C)[C@@H](C)O)C(=O)N[C@@H](C)C(N)=O [NSC_0]
